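The compound was tested at five concentrations on cells cultured in 96-well plates, with a 48-hour exposure period. At the GI50, growth is halved. TGI: total growth inhibition.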
How the values were obtained:
Assay in all cases: inhibition of tumour cell growth, NCI panel, 48 h
[1] = system: A498 renal
[2] = system: CCRF-CEM leukemia
[3] = system: HCT-116 colon
[4] = system: HCT-15 colon
[5] = system: HL-60(TB) leukemia
[6] = system: NCI-H23 lung
[7] = system: OVCAR-3 ovarian
[8] = system: SF-539 CNS
[9] = system: UO-31 renal

SMILES | GI50 [1] [µM] | TGI [1] [µM] | GI50 [2] [µM] | TGI [2] [µM] | GI50 [3] [µM] | TGI [3] [µM] | GI50 [4] [µM] | TGI [4] [µM] | GI50 [5] [µM] | TGI [5] [µM] | GI50 [6] [µM] | TGI [6] [µM] | GI50 [7] [µM] | TGI [7] [µM] | GI50 [8] [µM] | TGI [8] [µM] | GI50 [9] [µM] | TGI [9] [µM]
CCCN(CCC)c1ccc(/C=N/NC(=O)c2cccnc2)c(Cl)c1 | 0.161 | 0.318 | 15 | > 100 | 2.88 | 16 | 7.87 | 34.4 | 4.91 | 32.4 | 14.1 | 45.4 | 2.93 | 9.29 | 11.6 | 26.5 | 14.3 | 38.2
N.N.NCCCCN.O=C([O-])C1(C(=O)[O-])CCC1.O=C([O-])C1(C(=O)[O-])CCC1.[Pt+4].[Pt+4] | > 100 | > 100 | 80.6 | > 100 | > 100 | > 100 | > 100 | > 100 | > 100 | > 100 | 78.6 | > 100 | > 100 | > 100 | > 100 | > 100 | > 100 | > 100
NCc1nnn(Cc2ccccc2)c1N |  | > 100 |  | > 100 |  | > 100 |  | > 100 |  | > 100 |  | > 100 |  | > 100 |  | > 100 |  | 
COC(=O)C1=C(C(=O)OC)C23C=C(C)C1C2=C(C)C1(CC1)[C@@](C)(O)C3=O (stereo partly drawn) | 0.188 | 0.49 | 4.8 | > 100 | 0.37 | 11.5 | 0.403 | 12.8 | 1.55 | 15.9 | 0.17 | 0.851 | 0.336 | 2.12 | 0.337 | 1.56 | 0.185 | 0.464
COc1ccc(NC(=O)c2sc3nc(C)c(C(O)c4ccccc4)cc3c2N)cc1 (stereo not drawn) | 0.212 | 0.704 | 2.54 | > 100 | 2.71 | > 100 | 1.44 | > 100 | 2.76 | 10.3 | 3.48 | > 100 | 2.48 | 13.8 | 2.24 | 6.65 | 2.62 | > 100
CN(C)CCCc1c[nH]c2ccccc12 |  | > 100 |  | > 100 |  | > 100 |  | > 100 |  | > 100 |  | > 100 |  | > 100 |  | > 100 |  | > 100
CCC(=C/[C@H](C)C/C=C/C(C)=C/[C@@H](C)C(=O)[C@@H](C)[C@H](O)[C@@H](C)CC)/C=C/[C@H]1OC(=O)C=C[C@H]1C | < 0.01 | < 0.024 | < 0.01 | 9.07 | < 0.01 | 0.0102 | < 0.01 | 1.17 | < 0.01 | < 0.04 | < 0.01 | 1.5 | < 0.01 |  | < 0.01 | 0.439 | < 0.01 | 1.15
COc1cc(/C=C2\COc3ccc(O)c(O)c3C2=O)cc(OC)c1 | 5.12 | 19.1 | 0.505 | > 100 | 1.56 | 3.61 | 0.483 | 10.8 | 0.842 | 11.2 | 2.36 | 7.02 | 0.596 | 1.92 | 1.84 | 3.95 | 1.02 | 2.29
CCCCCCCC/C=C\CCCCCCCC(=O)NCCN(CCN)C(=O)CCCCCCC/C=C\CCCCCCCC |  | > 100 |  | > 100 |  | > 100 |  | > 100 |  | > 100 |  | > 100 |  | > 100 |  |  |  | > 100
COC1=CC(c2ccc[nH]2)=N/C1=C\c1[nH]c(C)c(C(=O)CCCCC(=O)Nc2ccccc2)c1C | 5.92 | 20.6 | 0.261 | 1.43 | 1.64 | 3 | 0.679 | 2.44 | 1.84 | 5.37 | 1.87 | 4.8 | 1.21 | 2.51 | 3.78 | 9.78 | 1.43 | 3.12
COc1ccc(/C=C/c2n[nH]c3ccc(N4CCOC4=O)cc23)cc1 | 3.57 | 7.01 |  |  | 0.693 | 13.6 | 1.12 | 12.5 | 1.44 | 4.04 | 1.79 | 6.18 | 2.97 | 9.42 | 0.99 | 3.33 | 2.52 | 9.92
Cc1ccc(S(=O)(=O)N2CCc3ccc(O)c4c3C2Cc2cc(Cl)ccc2-4)cc1 (stereo not drawn) | 0.234 | 2.13 | 0.922 | 14.1 | 1.11 | 4.38 | 1.35 | 6.97 | 1.05 | 4.06 | 0.864 | 3.28 | 0.733 | 1.63 | 0.792 | 2.83 | 1.52 | 14.4
C[C@@]12CCC(=O)C=C1CC[C@H]1C2=CC[C@]2(C)C1CC[C@@]2(C)O (stereo partly drawn) |  | > 100 |  | > 100 |  | > 100 |  | > 100 |  | 77.9 |  | > 100 |  | > 100 |  | > 100 |  | > 100
COC1=CC(c2ccc[nH]2)=N/C1=C\c1ccc[nH]1 | 3.65 | 14.4 | 0.0231 | 14 | 0.0238 |  | 0.0337 | 12.3 | 0.0672 | 3.39 | 2.1 | 19.1 | 0.0964 | 3.8 | 0.295 | 1.87 | 0.0778 | 0.339
COc1ccc(-c2ccc(C3CC(c4ccc(Cl)cc4)=NN3)o2)c([N+](=O)[O-])c1 (stereo not drawn) | > 100 | > 100 | > 100 | > 100 | > 100 | > 100 | > 100 | > 100 | > 100 | > 100 | > 100 | > 100 | > 100 | > 100 | > 100 | > 100 | > 100 | > 100

— PubChem BioAssay (NCI)
